ChEMBL document CHEMBL4619820, “Development of Novel AKR1C3 Inhibitors as New Potential Treatment for Castration-Resistant Prostate Cancer” (J Med Chem, 2020)
Positions count from the first letter of the chain named. Calls of active or inactive are those of the source. The calls are words filed in the database; no cut-off is given here.

Tests used:
[1] = molecular target: T1, Aldo-keto reductase family 1 member C2 (Homo sapiens, UniProt P52895); assay: Inhibition of recombinant AKR1C2 (unknown origin) assessed as reduction in S-tetralol-induced dehydrogenase activity by measuring NADPH level
T1 sequence (P52895 whole entry): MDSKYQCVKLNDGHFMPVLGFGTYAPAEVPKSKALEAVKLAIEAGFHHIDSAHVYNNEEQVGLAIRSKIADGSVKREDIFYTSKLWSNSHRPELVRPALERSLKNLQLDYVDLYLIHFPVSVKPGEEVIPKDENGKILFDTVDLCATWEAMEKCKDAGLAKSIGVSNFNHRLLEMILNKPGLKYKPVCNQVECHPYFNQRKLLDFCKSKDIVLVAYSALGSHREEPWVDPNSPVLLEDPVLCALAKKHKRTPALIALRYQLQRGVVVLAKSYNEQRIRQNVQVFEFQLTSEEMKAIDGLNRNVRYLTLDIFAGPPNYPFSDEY

[2] = molecular target: T2, Androgen receptor (Homo sapiens) (UniProt P10275); assay: Agonistic activity at AR in human 22Rv1 cells assessed as effect on cell number at 1 nM by CCK8 assay; type: cell-based; settings: CWR22R
T2 sequence (whole entry): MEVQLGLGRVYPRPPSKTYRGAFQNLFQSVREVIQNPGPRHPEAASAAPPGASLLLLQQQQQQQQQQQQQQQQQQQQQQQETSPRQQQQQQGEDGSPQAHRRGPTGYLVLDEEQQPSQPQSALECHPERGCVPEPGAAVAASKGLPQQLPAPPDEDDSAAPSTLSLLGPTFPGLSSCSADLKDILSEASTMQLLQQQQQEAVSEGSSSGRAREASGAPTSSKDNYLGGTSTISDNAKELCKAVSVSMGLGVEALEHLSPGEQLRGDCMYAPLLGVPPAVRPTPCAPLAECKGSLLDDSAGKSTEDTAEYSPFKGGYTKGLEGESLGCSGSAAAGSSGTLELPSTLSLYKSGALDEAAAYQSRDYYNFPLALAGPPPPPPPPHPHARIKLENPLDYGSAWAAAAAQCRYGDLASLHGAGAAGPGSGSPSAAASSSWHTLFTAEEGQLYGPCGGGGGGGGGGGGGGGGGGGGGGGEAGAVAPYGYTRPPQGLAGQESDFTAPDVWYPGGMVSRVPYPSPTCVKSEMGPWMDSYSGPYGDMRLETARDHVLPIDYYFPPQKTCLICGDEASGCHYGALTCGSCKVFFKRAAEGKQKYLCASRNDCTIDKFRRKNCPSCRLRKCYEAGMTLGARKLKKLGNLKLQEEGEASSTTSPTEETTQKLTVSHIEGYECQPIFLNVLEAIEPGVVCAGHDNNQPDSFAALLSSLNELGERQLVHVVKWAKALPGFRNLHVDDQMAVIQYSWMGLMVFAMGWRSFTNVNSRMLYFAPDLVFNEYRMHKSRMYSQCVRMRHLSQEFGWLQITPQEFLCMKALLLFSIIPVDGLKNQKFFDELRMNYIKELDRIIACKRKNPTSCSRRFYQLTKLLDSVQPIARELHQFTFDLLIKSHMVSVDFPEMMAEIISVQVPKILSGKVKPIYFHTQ

Homo sapiens [3] = organism: Homo sapiens; assay: Ratio of IC50 for inhibition of recombinant AKR1C4 (unknown origin) inhibition of recombinant AKR1C3 (unknown origin)
[4] = molecular target: T3, Aldo-keto reductase family 1 member C4 (Homo sapiens, UniProt P17516); assay: Inhibition of recombinant AKR1C4 (unknown origin) assessed as reduction in S-tetralol-induced dehydrogenase activity by measuring NADPH level
T3 sequence (P17516 whole entry): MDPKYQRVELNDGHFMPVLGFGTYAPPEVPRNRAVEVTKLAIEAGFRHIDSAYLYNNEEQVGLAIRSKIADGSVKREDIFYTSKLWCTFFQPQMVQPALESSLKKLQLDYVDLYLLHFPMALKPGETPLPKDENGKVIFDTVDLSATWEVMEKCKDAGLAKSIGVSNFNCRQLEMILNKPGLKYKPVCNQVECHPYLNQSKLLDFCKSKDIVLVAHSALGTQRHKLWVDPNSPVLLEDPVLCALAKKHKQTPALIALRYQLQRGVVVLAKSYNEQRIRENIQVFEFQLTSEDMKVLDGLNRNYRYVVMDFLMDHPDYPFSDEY

[5] = molecular target: T4, Carbonyl reductase [NADPH] 1 (Homo sapiens, UniProt P16152); assay: Inhibition of CBR1 (unknown origin)
T4 sequence (P16152 whole entry): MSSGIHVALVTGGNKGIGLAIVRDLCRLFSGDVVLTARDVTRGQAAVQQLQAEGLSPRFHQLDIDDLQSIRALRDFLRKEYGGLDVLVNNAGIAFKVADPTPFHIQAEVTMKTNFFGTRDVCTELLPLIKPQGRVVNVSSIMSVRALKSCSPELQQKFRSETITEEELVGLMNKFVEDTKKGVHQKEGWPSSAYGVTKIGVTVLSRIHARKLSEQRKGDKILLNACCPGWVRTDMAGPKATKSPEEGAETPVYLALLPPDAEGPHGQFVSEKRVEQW

[6] = molecular target: T5, Aldo-keto reductase family 1 member C3 (Homo sapiens, UniProt P42330); assay: Inhibition of recombinant AKR1C3 (unknown origin) assessed as reduction in S-tetralol-induced dehydrogenase activity by measuring NADPH level
T5 sequence (P42330 whole entry): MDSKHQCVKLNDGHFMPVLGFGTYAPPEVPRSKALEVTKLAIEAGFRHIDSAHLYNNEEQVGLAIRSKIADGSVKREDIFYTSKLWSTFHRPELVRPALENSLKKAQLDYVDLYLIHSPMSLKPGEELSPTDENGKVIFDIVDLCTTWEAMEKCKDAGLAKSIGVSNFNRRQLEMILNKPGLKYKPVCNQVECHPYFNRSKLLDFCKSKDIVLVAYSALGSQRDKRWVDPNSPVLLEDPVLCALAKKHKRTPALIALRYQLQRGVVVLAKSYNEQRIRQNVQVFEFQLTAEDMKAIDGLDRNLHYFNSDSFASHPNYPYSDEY

Homo sapiens [7] = organism: Homo sapiens; assay: Ratio of IC50 for inhibition of recombinant AKR1C1 (unknown origin) inhibition of recombinant AKR1C3 (unknown origin)
[8] = molecular target: T6, Aldo-keto reductase family 1 member C1 (Homo sapiens, UniProt Q04828); assay: Inhibition of recombinant AKR1C1 (unknown origin) assessed as reduction in S-tetralol-induced dehydrogenase activity by measuring NADPH level
T6 sequence (Q04828 whole entry): T1 sequence (P52895 whole entry) with V38T, H47R, V54L, S87C, M151V, H170R, L172Q

Homo sapiens [9] = organism: Homo sapiens; assay: Ratio of IC50 for inhibition of CBR1 (unknown origin) inhibition of recombinant AKR1C3 (unknown origin)
Homo sapiens [10] = organism: Homo sapiens; assay: Ratio of IC50 for inhibition of recombinant AKR1C2 (unknown origin) inhibition of recombinant AKR1C3 (unknown origin)

Structure (SMILES)	IC50 [1] [nM]	Activity [2]	Ratio IC50 (Homo sapiens [3])	IC50 [4] [nM]	IC50 [5] [nM]	IC50 [6] [nM]	Ratio IC50 (Homo sapiens [7])	IC50 [8] [nM]	Ratio IC50 (Homo sapiens [9])	Ratio IC50 (Homo sapiens [10])
N=c1oc2c(O)cccc2cc1C(=O)Nc1ccc(F)cc1	> 10000	inactive	> 400	> 10000	440	25	240	6000	18	> 400
CCc1cccc(NC(=O)c2cc3cccc(O)c3oc2=N)c1	> 10000	inactive	> 300	> 10000	250	34	> 300	> 10000	7	> 300
Cc1ccc(NC(=O)c2cc3cccc(O)c3oc2=N)cc1	> 10000	inactive	> 370	> 10000	270	27	> 370	> 10000	10	> 370
